# Experimental data as given in patent US6458764B1, “GRF analogs with increased biological potency” (Theratechnologies Inc., priority 1995, dated 2002).
# Where no end group is shown, it is not given here. The star is where a group is joined. Hexanoyl = CCCCCC(=O)*
# Key:
# serum IGF-I [1] = test: Comparative effects of GRF analogs on IGF-I levels in pigs (Example II, D-IGF-I, FIG. 1); assay type: in vivo, pigs (Landrace x Yorkshire); conditions: 20 μg/kg 2×/day S.C., days 1 to 5, n=8 pigs per group
# Method: This was a 5-day treatment, twice a day S.C. administration of one single dose of each test article vs saline. This experiment was conducted to compare the efficacy of (Aminohexanoyl)0 hGRF (1-29) NH2, (Hexylformiate)0 hGRF (1-29) NH2, (Hexenoyl trans-2)0 hGRF (1-29) NH2, (Hexenoyl trans-3)0 hGRF (1-29) NH2 and (Muconoyl)0 hGRF (1-29) NH2 to that of(Hexanoyl)0 hGRF (1-29) NH2.
# ADMINISTRATION: Two daily subcutaneous injections.
# TEST SYSTEM: Landrace x Yorkshire pigs.
# ANIMAL DESCRIPTION: Fifty six (56) growing barrows pigs weighing 35 kg at the time of purchase.
# DESIGN: Fifty six (56) pigs were randomly distributed into 7 experimental groups (n=8 pigs per group). Each group received two daily S.C. administration of the following treatments (volume: 3 ml, S.C. injection).
# Treatments were administered from day 1 to 5. Immediately before the injections, one blood sample were collected from each animal, and additional blood samples were collected on day 6.
# Blood samples were allowed to clot, serum was harvested by centrifugation and submitted to IGF-I assays.
# Results are shown in FIG. 1 as D-IGF-I, which is defined as the increase in IGF-I levels from day 1 (pretreatment levels) to day 6 (after 5 days of GRFs administrations).
# serum IGF-I [2] = test: Repeated S.C. administrations of GRF analogs, serum IGF-I levels in pigs (Example I, Experiments 1-3; radioimmunoassay); assay type: in vivo, pigs (Landrace x Yorkshire); conditions: for serum IGF-I, Day 1 (pretreatment): pretreatment baseline; for increase in IGF-I levels: P<0.05
# Method: The objective of these experiments was to assess the potential of the GRF analogs as anabolic agents.
# Therefore, in order to investigate the anabolic potency of the fatty acid-GRF analogs, their ability to increase IGF-I levels following repeated S.C. administrations in pig was evaluated.
# 26 Landrace x Yorkshire castrated male pigs (40-45 kg BW) were randomly distributed into 4 experimental groups:
# Each animal was injected BID (twice a day) subcutaneously for 4 consecutive days. One blood sample was collected each morning prior to the first injection of the day, and the day after the last injection, for IGF-I measurement.
# 40 Landrace x Yorkshire castrated male pigs (40-45 kg BW) were randomly distributed into 5 experimental groups:
# (§1) Each animal was injected BID (twice a day) subcutaneously for 5 consecutive days. One blood sample was collected each morning prior to the first injection of the day, and the day after the last injection, for IGF-I measurement.
# 48 Landrace x Yorkshire castrated male pigs (40-45 kg BW) were randomly distributed into 6 experimental groups:
# as §1, with “The selected doses were 30 μg/kg for hGRF(1-44)NH2 analogs and 20 μg/kg for hGRF(1-29)NH2 analogs, which give identical doses on a molar basis. Each” for “Each”, “measurements.” for “measurement.”
# IGF-I levels were measured in pig serum by double antibody radioimmunoassay after formic acid-acetone extraction, as previously described (Abribat T. et al., 1993, J. Endocrinol., 39:583-589). The extraction prior to radioimmunoassay is a necessary step to remove endogenous IGF-binding proteins.
# In both experiments, the IGF-I data were analyzed by a two way repeated measure analysis of variance, with day and treatment (GRF analog) as sources of variation. Multiple comparison procedures were there run (Student-Newman Keuls method). A P<0.05 was considered as statistically significant.
# [3] = Experiment 1, 20 μg/kg BID SC × 4 days, mean of 6 to 7
# [4] = Experiment 3, 20 μg/kg BID SC × 5 days, mean of 8
# [5] = Experiment 3, 30 μg/kg BID SC × 5 days, mean of 8
substance,measurement,setting,value
"(Aminohexanoyl)0 hGRF (1-29) NH2 (aminohexanoyl-YADAIFTNSYRKVLGQLSARKLLQDIMSR-NH2; UniProt P01286 32-60, looked up, fragment) [aminohexanoyl-hGRF(1-29)NH2]",D-IGF-I: increase in IGF-I levels from day 1 (pretreatment) to day 6,serum IGF-I [1],did not
"(Hexenoyl trans-2)0 hGRF (1-29) NH2 ({trans‑2‑hexenoyl}-YADAIFTNSYRKVLGQLSARKLLQDIMSR-NH2; UniProt P01286 32-60, looked up, fragment) [hexenoyl trans2-hGRF(1-29)NH2]",D-IGF-I: increase in IGF-I levels from day 1 (pretreatment) to day 6,serum IGF-I [1],significantly increased IGF-I levels
"(Hexylformiate)0 hGRF (1-29) NH2 (hexylformiate-YADAIFTNSYRKVLGQLSARKLLQDIMSR-NH2; UniProt P01286 32-60, looked up, fragment) [hexylformiate-hGRF(1-29)NH2]",D-IGF-I: increase in IGF-I levels from day 1 (pretreatment) to day 6,serum IGF-I [1],significantly increased IGF-I levels
"(Muconoyl)0 hGRF (1-29) NH2 (muconoyl-YADAIFTNSYRKVLGQLSARKLLQDIMSR-NH2; UniProt P01286 32-60, looked up, fragment) [muconoyl-hGRF(1-29)NH2]",D-IGF-I: increase in IGF-I levels from day 1 (pretreatment) to day 6,serum IGF-I [1],did not
"[butyryl^0] hGRF(1-29)NH2 (YADAIFTNSYRKVLGQLSARKLLQDIMSR; HELM PEPTIDE1{[CCCC(=O)[*:2]].Y.A.D.A.I.F.T.N.S.Y.R.K.V.L.G.Q.L.S.A.R.K.L.L.Q.D.I.M.S.R.[am]}$$$$V2.0; SMILES CCCC(=O)N[C@@H](Cc1ccc(O)cc1)C(=O)N[C@@H](C)C(=O)N[C@@H](CC(=O)O)C(=O)N[C@@H](C)C(=O)N[C@H](C(=O)N[C@@H](Cc1ccccc1)C(=O)N[C@H](C(=O)N[C@@H](CC(N)=O)C(=O)N[C@@H](CO)C(=O)N[C@@H](Cc1ccc(O)cc1)C(=O)N[C@@H](CCCNC(=N)N)C(=O)N[C@@H](CCCCN)C(=O)N[C@H](C(=O)N[C@@H](CC(C)C)C(=O)NCC(=O)N[C@@H](CCC(N)=O)C(=O)N[C@@H](CC(C)C)C(=O)N[C@@H](CO)C(=O)N[C@@H](C)C(=O)N[C@@H](CCCNC(=N)N)C(=O)N[C@@H](CCCCN)C(=O)N[C@@H](CC(C)C)C(=O)N[C@@H](CC(C)C)C(=O)N[C@@H](CCC(N)=O)C(=O)N[C@@H](CC(=O)O)C(=O)N[C@H](C(=O)N[C@@H](CCSC)C(=O)N[C@@H](CO)C(=O)N[C@@H](CCCNC(=N)N)C(N)=O)[C@@H](C)CC)C(C)C)[C@@H](C)O)[C@@H](C)CC; UniProt P01286 32-60, looked up, fragment)","serum IGF-I, Day 2",serum IGF-I [2]; [3],281 ng/mL
same,"serum IGF-I, Day 3",serum IGF-I [2]; [3],302 ng/mL
same,"serum IGF-I, Day 4",serum IGF-I [2]; [3],289 ng/mL
same,"serum IGF-I, Day 5",serum IGF-I [2]; [3],293 ng/mL
same,"serum IGF-I, Day 1 (pretreatment)",serum IGF-I [2]; [3],278 ng/mL
"[hexanoyl^0, 30]hGRF(1-29)NH2 (Hexanoyl-YADAIFTNSYRKVLGQLSARKLLQDIMSR-NH2; also: hexanoyl at position 30; UniProt P01286 32-60, looked up, fragment) [[hexanoyl^0,30] hGRF(1-29)NH2]","serum IGF-I, Day 2",serum IGF-I [2]; [4],212 ng/mL
same,"serum IGF-I, Day 3",serum IGF-I [2]; [4],253 ng/mL
same,"serum IGF-I, Day 4",serum IGF-I [2]; [4],271 ng/mL
same,"serum IGF-I, Day 5",serum IGF-I [2]; [4],277 ng/mL
same,"serum IGF-I, Day 6",serum IGF-I [2]; [4],294 ng/mL
same,"serum IGF-I, Day 1 (pretreatment)",serum IGF-I [2]; [4],205 ng/mL
same,increase in IGF-I levels,"serum IGF-I [2]; Experiment 3, 20 μg/kg BID SC, day 4",32%
same,increase in IGF-I levels,"serum IGF-I [2]; Experiment 3, 20 μg/kg BID SC, day 5",35%
same,increase in IGF-I levels,"serum IGF-I [2]; Experiment 3, 20 μg/kg BID SC, day 6",43%
"[hexanoyl^0]hGRF(1-44)NH2 (Hexanoyl-YADAIFTNSYRKVLGQLSARKLLQDIMSRQQGESNQERGARARL-NH2; UniProt P01286 32-75, looked up) [[hexanoyl^0] hGRF(1-44)NH2]","serum IGF-I, Day 2",serum IGF-I [2]; [5],290 ng/mL
same,"serum IGF-I, Day 3",serum IGF-I [2]; [5],340 ng/mL
same,"serum IGF-I, Day 4",serum IGF-I [2]; [5],372 ng/mL
same,"serum IGF-I, Day 5",serum IGF-I [2]; [5],361 ng/mL
same,"serum IGF-I, Day 6",serum IGF-I [2]; [5],388 ng/mL
same,"serum IGF-I, Day 1 (pretreatment)",serum IGF-I [2]; [5],241 ng/mL
same,increase in IGF-I levels,"serum IGF-I [2]; Experiment 3, 30 μg/kg BID SC, day 3",41%
same,increase in IGF-I levels,"serum IGF-I [2]; Experiment 3, 30 μg/kg BID SC, day 4",54%
same,increase in IGF-I levels,"serum IGF-I [2]; Experiment 3, 30 μg/kg BID SC, day 5",50%
same,increase in IGF-I levels,"serum IGF-I [2]; Experiment 3, 30 μg/kg BID SC, day 6",61%
"[hexanoyl^30]hGRF(1-29)NH2 (YADAIFTNSYRKVLGQLSARKLLQDIMSR-NH2; also: hexanoyl at position 30; UniProt P01286 32-60, looked up, fragment) [[hexanoyl^30] hGRF(1-29)NH2, hexanoyl function anchored at the C-terminal region of hGRF(1-29)NH2]","serum IGF-I, Day 2",serum IGF-I [2]; [4],270 ng/mL
same,"serum IGF-I, Day 3",serum IGF-I [2]; [4],287 ng/mL
same,"serum IGF-I, Day 4",serum IGF-I [2]; [4],278 ng/mL
same,"serum IGF-I, Day 5",serum IGF-I [2]; [4],276 ng/mL
same,"serum IGF-I, Day 6",serum IGF-I [2]; [4],327 ng/mL
same,"serum IGF-I, Day 1 (pretreatment)",serum IGF-I [2]; [4],297 ng/mL
"[octanoyl^0] hGRF(1-29)NH2 (YADAIFTNSYRKVLGQLSARKLLQDIMSR; HELM PEPTIDE1{[CCCCCCCC(=O)[*:2]].Y.A.D.A.I.F.T.N.S.Y.R.K.V.L.G.Q.L.S.A.R.K.L.L.Q.D.I.M.S.R.[am]}$$$$V2.0; SMILES CCCCCCCC(=O)N[C@@H](Cc1ccc(O)cc1)C(=O)N[C@@H](C)C(=O)N[C@@H](CC(=O)O)C(=O)N[C@@H](C)C(=O)N[C@H](C(=O)N[C@@H](Cc1ccccc1)C(=O)N[C@H](C(=O)N[C@@H](CC(N)=O)C(=O)N[C@@H](CO)C(=O)N[C@@H](Cc1ccc(O)cc1)C(=O)N[C@@H](CCCNC(=N)N)C(=O)N[C@@H](CCCCN)C(=O)N[C@H](C(=O)N[C@@H](CC(C)C)C(=O)NCC(=O)N[C@@H](CCC(N)=O)C(=O)N[C@@H](CC(C)C)C(=O)N[C@@H](CO)C(=O)N[C@@H](C)C(=O)N[C@@H](CCCNC(=N)N)C(=O)N[C@@H](CCCCN)C(=O)N[C@@H](CC(C)C)C(=O)N[C@@H](CC(C)C)C(=O)N[C@@H](CCC(N)=O)C(=O)N[C@@H](CC(=O)O)C(=O)N[C@H](C(=O)N[C@@H](CCSC)C(=O)N[C@@H](CO)C(=O)N[C@@H](CCCNC(=N)N)C(N)=O)[C@@H](C)CC)C(C)C)[C@@H](C)O)[C@@H](C)CC; UniProt P01286 32-60, looked up, fragment)","serum IGF-I, Day 2",serum IGF-I [2]; [3],287 ng/mL
same,"serum IGF-I, Day 3",serum IGF-I [2]; [3],301 ng/mL
same,"serum IGF-I, Day 4",serum IGF-I [2]; [3],301 ng/mL
same,"serum IGF-I, Day 5",serum IGF-I [2]; [3],318 ng/mL
same,"serum IGF-I, Day 1 (pretreatment)",serum IGF-I [2]; [3],316 ng/mL
